These results are taken from PMC9817974, “Pharmacokinetic Basis for Using Saliva Matrine Concentrations as a Clinical Compliance Monitoring in Antitumor B Chemoprevention Trials in Humans” (Cancers, 2022).

A word on the Km: it is the substrate concentration at which the rate is half of its maximum.

The nature of series [1]: Single-dose oral pharmacokinetic study of ATB tablets in healthy human subjects (plasma and saliva, non-compartmental analysis). Format: in vivo. To be noted: after 2400 mg ATB oral administration; LLOQ of Dict […]. Here is the method:
In addition, in vivo correlation between plasma and saliva concentrations was determined as the secondary outcome.
The ratio of drug concentration in plasma and saliva were calculated using Equations (1) and (2). (1) RCmax=Cmax saliva/Cmax plasma (2) RAUC=AUC0–24 saliva/AUC0–24 plasma […]
S2.1. Human Pharmacokinetic Study Design
The study was conducted in two phases. Two self-volunteered subjects participated in the study […]
Participants refrained from consumption of […]
dosing blood and saliva samples were collected. Each participant received single-dose oral […]
saliva sample kit for salivary collection. Plasma samples were then collected by centrifugation of […]
hour post-administration. […]
administration. […] Throughout the […]
collected and saline lock was removed. Participants returned the next day morning for 24-hour […]
Participants fasted 8-12 hours before each

Series [2] is described as follows: Sample stability of ATB components (bench, freeze-thaw, short-term, long-term). Format: physicochemical. To be noted: in % (unit assumed). As for the experimental part:
samples for calibration were prepared. The study and QC samples were prepared on the same day as the UPLC-MS/MS analysis was done.
Calibration curves were prepared the same way as described in section S1.2.2. The linearity of each calibration curve was determined by plotting the peak area ratio of Matr, Maac, Dict, and Frax to I.S. in plasma. […] The lower limit of […] was defined based on a signal-to-noise ratio of 10:1.
S1.2.4 Extraction recovery and matrix effect
The extraction recoveries of Matr, Maac, Dict, and Frax were determined by comparing the relative peak areas obtained from blank plasma spiked with analytes and those obtained from water spiked with the same amounts of analytes. Matrix effect was determined by comparing the peak areas of blank plasma extracts spikes with analytes and I.S. with those of the standard solutions dried and reconstituted with mobile phase. The quality control samples were prepared in plasma.
Bench work (25°C for 4 hours), short-term (-20°C for 7 days), long-term (-80°C for 4 months) and three freeze-thaw cycle stabilities were determined.

Test in series [3]: as above
Format: physicochemical. To be noted: in % (unit assumed). This is another data set of the same source.

Series [4] in a line: Stability of ATB tablets (ICH storage conditions). To be noted: for remaining percentage in ATB tablets, Long term 3 months / remaining percentage in ATB tablets, Long term 6 months / remaining percentage in ATB tablets, Long term 12 months: 25 ± 2 °C/60 ± 5% RH.
Procedure: Two independent batches of ATB tablets were tested according to International Conference on Harmonization (ICH) Guideline for long-term (12 months at 25 ± 2 °C/60 ± 5% RH), intermediate (6 months at 30 ± 2 °C/65 ± 5% RH), and accelerated (40 ± 2 °C/75 ± 5% RH) stability [12].
A further series has as its system OCT1, OCT2 and OCT3. Further details: method as in PMID 33896325. To be noted: read-out: Km of uptake by OCT1, OCT2 and OCT3; cited from earlier work.
On the set-up of series [5]: method as in PMID 33896325. To be noted: cited from earlier work.

For `CC1=C2C(=O)O[C@@H](c3ccoc3)[C@]2(C)CCC1` [Frax, fraxinellone], the “detection in plasma and saliva samples” value in series [1] is reported as “not detected in any study sample”. Also, in series [2] (HQC concentration level), the “Stability, 3 cycles freeze-thaw” value is on record as 98.9 ± 2.2; the “Stability, Bench work (4 hrs, 25 oC)” value is on record as 89.1 ± 9.9; the “Stability, Short-term (7 days, -20 oC)” value stood at 99.1 ± 8.0. Besides, the “Stability, 3 cycles freeze-thaw” value in series [2] (LOQ concentration level) is given as 105.7 ± 3.2. In series [2] (MQC concentration level), the “Stability, 3 cycles freeze-thaw” value worked out at 104.0 ± 1.3 and the “Stability, Bench work (4 hrs, 25 oC)” value was found to be 90.5 ± 8.0. Further, the “Stability, Long-term (6 months, -80 oC)” value in series [3] (HQC concentration level) is given as 94.8 ± 0.4. Further, in series [3] (LOQ concentration level), the “Stability, Bench work (4 hrs, 25 oC)” value was 108.5 ± 5.0; the “Stability, Long-term (6 months, -80 oC)” value came to 85.7 ± 3.6; the “Stability, Short-term (7 days, -20 oC)” value turned out to be 89.6 ± 0.5. Further, in series [3] (MQC concentration level), the “Stability, Long-term (6 months, -80 oC)” value is 90.1 ± 5.6 and the “Stability, Short-term (7 days, -20 oC)” value was determined as 96.6 ± 5.8. Further, in series [4], the “remaining percentage in ATB tablets, Long term 3 months” value came to 92.4 ± 6.4%; the “remaining percentage in ATB tablets, Long term 6 months” value is listed as 81.2 ± 10.1%; the “remaining percentage in ATB tablets, Long term 12 months” value was 93.8 ± 1.0%. In addition, in series [4] (30 ± 2 °C/65 ± 5% RH), the “remaining percentage in ATB tablets, Intermediate 3 months” value is 112.5 ± 7.2% and the “remaining percentage in ATB tablets, Intermediate 6 months” value amounted to 113.1 ± 7.2%. Further, in series [4] (40 ± 2 °C/75 ± 5% RH), the “remaining percentage in ATB tablets, Accelerated term 3 months” value is reported as 84.3 ± 13.2% and the “remaining percentage in ATB tablets, Accelerated term 6 months” value was 115.8 ± 1.5%.

With `Oc1ccc2c(c1)OC[C@H]1c3cc4c(cc3O[C@@H]21)OCO4` [Maac, maackiain], the “detection in plasma and saliva samples” value in series [1] is on record as “detected in 30 min plasma sample of only one participant”. In series [2] (HQC concentration level), the “Stability, 3 cycles freeze-thaw” value was determined as 114.7 ± 2.8; the “Stability, Bench work (4 hrs, 25 oC)” value worked out at 108.7 ± 8.1; the “Stability, Short-term (7 days, -20 oC)” value amounted to 91.2 ± 8.0. Also, the “Stability, 3 cycles freeze-thaw” value in series [2] (LOQ concentration level) was determined as 113.3 ± 6.4. In addition, in series [2] (MQC concentration level), the “Stability, 3 cycles freeze-thaw” value amounted to 114.6 ± 3.2 and the “Stability, Bench work (4 hrs, 25 oC)” value is 109.1 ± 5.9. Besides, the “Stability, Long-term (6 months, -80 oC)” value in series [3] (HQC concentration level) is 92.3 ± 5.7. In addition, in series [3] (LOQ concentration level), the “Stability, Bench work (4 hrs, 25 oC)” value came to 93.8 ± 11.6; the “Stability, Long-term (6 months, -80 oC)” value worked out at 87.0 ± 5.1; the “Stability, Short-term (7 days, -20 oC)” value is listed as 99.6 ± 1.4. In series [3] (MQC concentration level), the “Stability, Long-term (6 months, -80 oC)” value came to 85.5 ± 0.4 and the “Stability, Short-term (7 days, -20 oC)” value is recorded as 89.1 ± 11.0. Further, in series [4], the “remaining percentage in ATB tablets, Long term 3 months” value was determined as 81.1 ± 5.3%; the “remaining percentage in ATB tablets, Long term 6 months” value came to 101.6±0.2%; the “remaining percentage in ATB tablets, Long term 12 months” value is 89.1 ± 4.2%.

In the case of `CN(C)C(=N)N=C(N)N` [metformin], in the series on OCT1, OCT2 and OCT3, the Km is 285 to 3170 µM. The saliva/plasma concentration ratio in series [5] is on record as 0.29–0.39.
